{"source": "paper PMC2635417", "about": "(The Journal of endocrinology, 2008)", "key": {"[1]": {"tested_on": "CRH receptors (CRH-R1 and CRH-R2) in αT3-1 cells", "type": "cell-based, murine", "conditions": "1 mM IBMX, p<0.05; for inhibition of CRH-mediated cAMP increase: 10 μM α-helical CRH 9–41 or 1 μM astressin with 100 nM CRH, 3 min; for inhibition of UCN1-mediated cAMP increase: 10 μM α-helical CRH 9–41 or 1 μM astressin with 100 nM UCN1, 3 min"}, "CRH-R2 in αT3-1 cells": {"tested_on": "CRH-R2 in αT3-1 cells", "assay": "Antisauvagine", "type": "cell-based, murine", "conditions": "1 μM antisauvagine, 15 min pretreatment; for effect of antisauvagine alone on cAMP: versus vehicle"}, "αT3-1 cells [2]": {"tested_on": "αT3-1 cells", "conditions": "cited from earlier work"}, "αT3-1 cells [3]": {"tested_on": "αT3-1 cells", "assay": "Total inositol phosphate levels", "type": "cell-based, murine", "conditions": "treatment alone; preliminary studies, unpublished data, A. Seasholtz"}, "[4]": {"tested_on": "PACAP receptor in LβT2 gonadotrope like cell line", "conditions": "LβT2 cells; ref Lariviere, et al. 2008; cited from earlier work"}, "α-subunit in αT3-1 cells": {"tested_on": "α-subunit in αT3-1 cells", "conditions": "ref Attardi and Winters 1998, Burrin, et al. 1998, Schomerus, et al. 1994, Tsujii, et al. 1995; cited from earlier work"}}, "note": "“Also recorded” adds a separate entry of the source. Like-named read-outs stand apart in the source and are kept apart here. No end group written: not given here."}
{"substance": "alpha-helical CRH (9–41) [α-helical CRH 9–41]", "values": [{"measurement": "inhibition of CRH-mediated cAMP increase", "setting": "[1]", "result": "reduced cAMP values to vehicle-treated levels"}, {"measurement": "inhibition of CRH-mediated cAMP increase", "setting": "[1]; listed as α-helical CRH 9-41", "result": "completely blocked; also recorded: completely inhibited"}, {"measurement": "inhibition of UCN1-mediated cAMP increase", "setting": "[1]", "result": "reduced cAMP values to vehicle-treated levels"}, {"measurement": "inhibition of UCN1-mediated cAMP increase", "setting": "[1]; listed as α-helical CRH 9-41", "result": "completely blocked; also recorded: completely inhibited"}]}
{"substance": "antisauvagine", "values": [{"measurement": "repression of UCN1-mediated cAMP increase", "setting": "CRH-R2 in αT3-1 cells; then 100 nM UCN1 3 min, partial block", "result": 75, "unit": "%"}, {"measurement": "inhibition of UCN3-mediated cAMP increase", "setting": "CRH-R2 in αT3-1 cells; then 100 nM UCN3 3 min, p<0.05", "result": "completely blocked"}, {"measurement": "effect of antisauvagine alone on cAMP", "setting": "CRH-R2 in αT3-1 cells", "result": "did not significantly differ from vehicle"}, {"measurement": "effect of antisauvagine alone on cAMP", "setting": "CRH-R2 in αT3-1 cells; listed as AS", "result": "no significant difference"}]}
{"substance": "astressin", "values": [{"measurement": "inhibition of CRH-mediated cAMP increase", "setting": "[1]", "result": "completely blocked; also recorded: complete suppression; also recorded: completely inhibited; also recorded: significant repressions"}, {"measurement": "inhibition of UCN1-mediated cAMP increase", "setting": "[1]", "result": "completely blocked; also recorded: complete suppression; also recorded: completely inhibited; also recorded: significant repressions"}]}
{"substance": "gonadotropin- releasing hormone (QHWSYGLRPG; Gonadoliberin-1; UniProt P01148 24-33, looked up) [GnRH]", "values": [{"measurement": "effect on cAMP levels", "setting": "αT3-1 cells [2]; alone, ref McArdle and Counis 1996, McArdle, et al. 1994", "result": "does not alter cAMP levels"}, {"measurement": "effect on total inositol phosphate levels", "setting": "αT3-1 cells [3]", "result": "dramatically increases total inositol phosphate levels"}, {"measurement": "PACAP receptor phosphorylation by PKC", "setting": "[4]", "result": "stimulating PACAP receptor phosphorylation by PKC"}]}
{"substance": "pituitary adenylyl cyclase activating polypeptide (HSDGIFTDSYSRYRKQMAVKKYLAAVLGKRYKQRVKNK-NH2; ends and bridges not checked; UniProt P18509 132-169, looked up) [PACAP]", "values": [{"measurement": "effect on cAMP levels", "setting": "αT3-1 cells [2]; ref Attardi and Winters 1998, Burrin, et al. 1998, Schomerus, et al. 1994, Tsujii, et al. 1995", "result": "increase intracellular cAMP levels"}, {"measurement": "α-subunit transcriptional activity / mRNA / expression", "setting": "α-subunit in αT3-1 cells", "result": "increased transcriptional activity and steady state levels of α-subunit mRNA; also recorded: increased α-subunit expression"}]}
